According to PubChem BioAssay AID194 (DTP/NCI, 2004):
Where “and” joins values, the source holds several entries; their conditions need not be identical. Equal values may be shown once. Inconclusive results are not listed.

Test system: BDF1 mice, B16 melanoma s.c., survival/tumor T/C
Assay: NCI In Vivo Anticancer Drug Screen. Data for tumor model B16 Melanoma (subcutaneous) in B6D2F1 (BDF1) mice
Description: The antitumor activity of compounds was measured in mice bearing transplantable tumors. Survival or tumor size were measured and the results are expressed as the measurement made in the treated group (T) divided by the measurement made in the vehicle treated control group (C). The tumor model used in this assay is B16 Melanoma (subcutaneous) in B6D2F1 (BDF1) mice

## COc1cccc2c1C(=O)c1c(O)c3c(c(O)c1C2=O)C[C@@](O)(C(=O)COC(=O)Cc1cccc2ccccc12)C[C@@H]3OC1CC(N)C(O)C(C)O1 (some centres undefined)
endpoint: median survival time, dose: 1.0 mg/kg/injection, schedule: Q01DX009 (ip), vehicle: saline with Tween-80, higher = longer survival
  T/C: 111 % of control
endpoint: median survival time, dose: 2.0 mg/kg/injection, schedule: Q01DX009 (ip), vehicle: saline with Tween-80, higher = longer survival
  T/C: 114 % of control
endpoint: median survival time, dose: 4.0 mg/kg/injection, schedule: Q01DX009 (ip), vehicle: saline with Tween-80, higher = longer survival
  T/C: 94 % of control

## COC(=O)C[C@](O)(CCCC(C)(C)O)C(=O)O[C@@H]1C(OC)=C[C@]23CCCN2CCc2cc4c(cc2[C@H]13)OCO4
endpoint: median survival time, dose: 0.25 mg/kg/injection, schedule: Q01DX009 (ip), vehicle: acid diluted with saline, higher = longer survival
  T/C: 118 % of control
endpoint: median survival time, dose: 0.5 mg/kg/injection, schedule: Q01DX009 (ip), vehicle: acid diluted with saline, higher = longer survival
  T/C: 100 % of control
endpoint: median survival time, dose: 0.7 mg/kg/injection, schedule: Q01DX009 (ip), vehicle: acid diluted with saline, higher = longer survival
  T/C: 101 % of control
endpoint: median survival time, dose: 1.0 mg/kg/injection, schedule: Q01DX009 (ip), vehicle: acid diluted with saline, higher = longer survival
  T/C: 103 % of control
endpoint: median survival time, dose: 1.5 mg/kg/injection, schedule: Q01DX009 (ip), vehicle: acid diluted with saline, higher = longer survival
  T/C: 101 % of control

## CC(C)CCC[C@@H](C)[C@H]1CC[C@H]2[C@@H]3CC=C4C[C@@H](O)CC[C@]4(C)[C@H]3CC[C@]12C
endpoint: median survival time, dose: 12.5 mg/kg/injection, schedule: Q01DX009 (ip), vehicle: other, higher = longer survival
  T/C: 120 % of control
endpoint: median survival time, dose: 25.0 mg/kg/injection, schedule: Q01DX009 (ip), vehicle: other, higher = longer survival
  T/C: 96 % of control
endpoint: median survival time, dose: 50.0 mg/kg/injection, schedule: Q01DX009 (ip), vehicle: other, higher = longer survival
  T/C: 119 % of control

## CC1=CCC(C(C)C)C=C1 (centres undefined)
endpoint: median survival time, dose: 25.0 mg/kg/injection, schedule: Q01DX009 (ip), vehicle: Klucel (hydroxypropylcellulose) (HPC), higher = longer survival
  T/C: 121 % of control
endpoint: median survival time, dose: 50.0 mg/kg/injection, schedule: Q01DX009 (ip), vehicle: Klucel (hydroxypropylcellulose) (HPC), higher = longer survival
  T/C: 117 % of control
endpoint: median survival time, dose: 100.0 mg/kg/injection, schedule: Q01DX009 (ip), vehicle: Klucel (hydroxypropylcellulose) (HPC), higher = longer survival
  T/C: 89 % of control and 100 % of control
endpoint: median survival time, dose: 200.0 mg/kg/injection, schedule: Q01DX009 (ip), vehicle: Klucel (hydroxypropylcellulose) (HPC), higher = longer survival
  T/C: 98 % of control and 108 % of control

## N/C(=N\Cl)C(Cl)(Cl)Cl
endpoint: median survival time, dose: 6.25 mg/kg/injection, schedule: Q01DX009 (ip), vehicle: saline with Tween-80, higher = longer survival
  T/C: 102 % of control
endpoint: median survival time, dose: 12.5 mg/kg/injection, schedule: Q01DX009 (ip), vehicle: saline with Tween-80, higher = longer survival
  T/C: 98 % of control
endpoint: median survival time, dose: 50.0 mg/kg/injection, schedule: Q01DX009 (ip), vehicle: saline with Tween-80, higher = longer survival
  T/C: 94 % of control

## O=NN(CCF)C(=O)NC1CCCCC1
endpoint: median survival time, dose: 0.63 mg/kg/injection, schedule: Q01HX012 (ip), vehicle: Klucel (hydroxypropylcellulose) (HPC), higher = longer survival
  T/C: 123 % of control
endpoint: median survival time, dose: 1.25 mg/kg/injection, schedule: Q01HX012 (ip), vehicle: Klucel (hydroxypropylcellulose) (HPC), higher = longer survival
  T/C: 107 % of control
endpoint: median survival time, dose: 1.25 mg/kg/injection, schedule: Q02HX006 (ip), vehicle: Klucel (hydroxypropylcellulose) (HPC), higher = longer survival
  T/C: 96 % of control
endpoint: median survival time, dose: 1.88 mg/kg/injection, schedule: Q03HX004 (ip), vehicle: Klucel (hydroxypropylcellulose) (HPC), higher = longer survival
  T/C: 96 % of control
endpoint: median survival time, dose: 2.5 mg/kg/injection, schedule: Q02HX006 (ip), vehicle: Klucel (hydroxypropylcellulose) (HPC), higher = longer survival
  T/C: 101 % of control
endpoint: median survival time, dose: 3.11 mg/kg/injection, schedule: Q01DX007 (ip), vehicle: Klucel (hydroxypropylcellulose) (HPC), higher = longer survival
  T/C: 98 % of control
endpoint: median survival time, dose: 5.0 mg/kg/injection, schedule: Q01HX012 (ip), vehicle: Klucel (hydroxypropylcellulose) (HPC), higher = longer survival
  T/C: 242 % of control
endpoint: median survival time, dose: 5.0 mg/kg/injection, schedule: Q02HX006 (ip), vehicle: Klucel (hydroxypropylcellulose) (HPC), higher = longer survival
  T/C: 115 % of control
endpoint: median survival time, dose: 5.18 mg/kg/injection, schedule: Q01DX007 (ip), vehicle: Klucel (hydroxypropylcellulose) (HPC), higher = longer survival
  T/C: 102 % of control
endpoint: median survival time, dose: 7.5 mg/kg/injection, schedule: Q01DX001 (ip), vehicle: Klucel (hydroxypropylcellulose) (HPC), higher = longer survival
  T/C: 107 % of control
endpoint: median survival time, dose: 7.5 mg/kg/injection, schedule: Q03HX004 (ip), vehicle: Klucel (hydroxypropylcellulose) (HPC), higher = longer survival
  T/C: 115 % of control
endpoint: median survival time, dose: 10.0 mg/kg/injection, schedule: Q02HX006 (ip), vehicle: Klucel (hydroxypropylcellulose) (HPC), higher = longer survival
  T/C: 261 % of control
endpoint: median survival time, dose: 14.4 mg/kg/injection, schedule: Q01DX007 (ip), vehicle: Klucel (hydroxypropylcellulose) (HPC), higher = longer survival
  T/C: 120 % of control
endpoint: median survival time, dose: 15.0 mg/kg/injection, schedule: Q01DX001 (ip), vehicle: Klucel (hydroxypropylcellulose) (HPC), higher = longer survival
  T/C: 119 % of control
endpoint: median survival time, dose: 15.0 mg/kg/injection, schedule: Q03HX004 (ip), vehicle: Klucel (hydroxypropylcellulose) (HPC), higher = longer survival
  T/C: 157 % of control
endpoint: median survival time, dose: 15.8 mg/kg/injection, schedule: Q01DX007 (ip), vehicle: Klucel (hydroxypropylcellulose) (HPC), higher = longer survival
  T/C: 115 % of control
endpoint: median survival time, dose: 20.0 mg/kg/injection, schedule: Q02HX006 (ip), vehicle: Klucel (hydroxypropylcellulose) (HPC), higher = longer survival
  T/C: 88 % of control
endpoint: median survival time, dose: 23.7 mg/kg/injection, schedule: Q01DX007 (ip), vehicle: Klucel (hydroxypropylcellulose) (HPC), higher = longer survival
  T/C: 68 % of control
endpoint: median survival time, dose: 30.0 mg/kg/injection, schedule: Q01DX001 (ip), vehicle: Klucel (hydroxypropylcellulose) (HPC), higher = longer survival
  T/C: 164 % of control
endpoint: median survival time, dose: 30.0 mg/kg/injection, schedule: Q03HX004 (ip), vehicle: Klucel (hydroxypropylcellulose) (HPC), higher = longer survival
  T/C: 326 % of control
endpoint: median survival time, dose: 35.6 mg/kg/injection, schedule: Q01DX007 (ip), vehicle: Klucel (hydroxypropylcellulose) (HPC), higher = longer survival
  T/C: 69 % of control
endpoint: median survival time, dose: 53.3 mg/kg/injection, schedule: Q01DX007 (ip), vehicle: Klucel (hydroxypropylcellulose) (HPC), higher = longer survival
  T/C: 60 % of control
endpoint: median survival time, dose: 60.0 mg/kg/injection, schedule: Q01DX001 (ip), vehicle: Klucel (hydroxypropylcellulose) (HPC), higher = longer survival
  T/C: 238 % of control
endpoint: median survival time, dose: 80.0 mg/kg/injection, schedule: Q01DX007 (ip), vehicle: Klucel (hydroxypropylcellulose) (HPC), higher = longer survival
  T/C: 55 % of control
endpoint: median tumor weight (est.), dose: 1.25 mg/kg/injection, schedule: Q01HX012 (ip), vehicle: Klucel (hydroxypropylcellulose) (HPC), higher = larger tumour
  T/C: 59 % of control
endpoint: median tumor weight (est.), dose: 1.25 mg/kg/injection, schedule: Q02HX006 (ip), vehicle: Klucel (hydroxypropylcellulose) (HPC), higher = larger tumour
  T/C: 114 % of control
endpoint: median tumor weight (est.), dose: 1.88 mg/kg/injection, schedule: Q03HX004 (ip), vehicle: Klucel (hydroxypropylcellulose) (HPC), higher = larger tumour
  T/C: 61 % of control
endpoint: median tumor weight (est.), dose: 2.5 mg/kg/injection, schedule: Q01HX012 (ip), vehicle: Klucel (hydroxypropylcellulose) (HPC), higher = larger tumour
  T/C: 10 % of control
endpoint: median tumor weight (est.), dose: 2.5 mg/kg/injection, schedule: Q02HX006 (ip), vehicle: Klucel (hydroxypropylcellulose) (HPC), higher = larger tumour
  T/C: 67 % of control
endpoint: median tumor weight (est.), dose: 3.75 mg/kg/injection, schedule: Q03HX004 (ip), vehicle: Klucel (hydroxypropylcellulose) (HPC), higher = larger tumour
  T/C: 83 % of control
endpoint: median tumor weight (est.), dose: 5.0 mg/kg/injection, schedule: Q02HX006 (ip), vehicle: Klucel (hydroxypropylcellulose) (HPC), higher = larger tumour
  T/C: 26 % of control
endpoint: median tumor weight (est.), dose: 7.5 mg/kg/injection, schedule: Q01DX001 (ip), vehicle: Klucel (hydroxypropylcellulose) (HPC), higher = larger tumour
  T/C: 110 % of control
endpoint: median tumor weight (est.), dose: 7.5 mg/kg/injection, schedule: Q03HX004 (ip), vehicle: Klucel (hydroxypropylcellulose) (HPC), higher = larger tumour
  T/C: 70 % of control
endpoint: median tumor weight (est.), dose: 15.0 mg/kg/injection, schedule: Q01DX001 (ip), vehicle: Klucel (hydroxypropylcellulose) (HPC), higher = larger tumour
  T/C: 70 % of control

## COC(=O)Nc1cccc(-c2nc3ccc(NC(=O)OC)cc3c(=O)n2-c2ccccc2)c1
endpoint: median survival time, dose: 50.0 mg/kg/injection, schedule: Q04DX005 (ip), vehicle: other, higher = longer survival
  T/C: 99 % of control
endpoint: median survival time, dose: 100.0 mg/kg/injection, schedule: Q04DX005 (ip), vehicle: other, higher = longer survival
  T/C: 115 % of control
endpoint: median survival time, dose: 100.0 mg/kg/injection, schedule: Q04DX005 (oral), vehicle: other, higher = longer survival
  T/C: 102 % of control
endpoint: median survival time, dose: 200.0 mg/kg/injection, schedule: Q04DX005 (oral), vehicle: other, higher = longer survival
  T/C: 94 % of control

## CC1(C)N=C(N)N=C(N)N1c1ccc(CCCCc2cccc(S(=O)(=O)F)c2)c(Cl)c1
endpoint: median survival time, dose: 12.0 mg/kg/injection, schedule: Q01DX009 (ip), vehicle: saline, higher = longer survival
  T/C: 121 % of control
endpoint: median survival time, dose: 18.0 mg/kg/injection, schedule: Q01DX009 (ip), vehicle: saline, higher = longer survival
  T/C: 98 % of control

## CN(N=O)C(=O)N[C@@H](C=O)[C@@H](O)[C@H](O)[C@H](O)CO
endpoint: median survival time, dose: 20.0 mg/kg/injection, schedule: Q01DX009 (ip), vehicle: other, higher = longer survival
  T/C: 113 % of control
endpoint: median survival time, dose: 40.0 mg/kg/injection, schedule: Q01DX009 (ip), vehicle: other, higher = longer survival
  T/C: 123 % of control
endpoint: median survival time, dose: 80.0 mg/kg/injection, schedule: Q01DX009 (ip), vehicle: other, higher = longer survival
  T/C: 106 % of control

## O=NN(CCF)C(=O)NC1CCSCC1
endpoint: median survival time, dose: 31.0 mg/kg/injection, schedule: Q01DX001 (ip), vehicle: saline with Tween-80, higher = longer survival
  T/C: 177 % of control
endpoint: median survival time, dose: 41.0 mg/kg/injection, schedule: Q01DX001 (ip), vehicle: saline with Tween-80, higher = longer survival
  T/C: 186 % of control
endpoint: median survival time, dose: 55.0 mg/kg/injection, schedule: Q01DX001 (ip), vehicle: saline with Tween-80, higher = longer survival
  T/C: 196 % of control
